Our source for the GI50, solubility and INH values is ChEMBL document CHEMBL2034876, “Diversity-Oriented Synthesis Yields a Novel Lead for the Treatment of Malaria” (ACS Med Chem Lett, 2012).

One data set relates to Plasmodium falciparum. The experiment in a line: Antimalarial activity against asexual blood stage form of Plasmodium falciparum Dd2 infected in human erythrocytes after 72 hrs by DAPI staining. The conditions noted are these: Dd2, 72 h. The data set is classed as functional.
A short description of data set [1]: Aqueous solubility of the compound. To be noted: water. The data set is classed as physicochemical.
The target in data set [2] is Dihydroorotate dehydrogenase (quinone), mitochondrial (Homo sapiens) (UniProt Q02127). Put plainly: Inhibition of human DHODH-mediated 2,6-dichloroindophenol reduction after 20 mins by spectrophotometry.
In data set [3] the target is T1, Dihydroorotate dehydrogenase (Plasmodium falciparum) (UniProt Q54A96).
T1 sequence (whole entry): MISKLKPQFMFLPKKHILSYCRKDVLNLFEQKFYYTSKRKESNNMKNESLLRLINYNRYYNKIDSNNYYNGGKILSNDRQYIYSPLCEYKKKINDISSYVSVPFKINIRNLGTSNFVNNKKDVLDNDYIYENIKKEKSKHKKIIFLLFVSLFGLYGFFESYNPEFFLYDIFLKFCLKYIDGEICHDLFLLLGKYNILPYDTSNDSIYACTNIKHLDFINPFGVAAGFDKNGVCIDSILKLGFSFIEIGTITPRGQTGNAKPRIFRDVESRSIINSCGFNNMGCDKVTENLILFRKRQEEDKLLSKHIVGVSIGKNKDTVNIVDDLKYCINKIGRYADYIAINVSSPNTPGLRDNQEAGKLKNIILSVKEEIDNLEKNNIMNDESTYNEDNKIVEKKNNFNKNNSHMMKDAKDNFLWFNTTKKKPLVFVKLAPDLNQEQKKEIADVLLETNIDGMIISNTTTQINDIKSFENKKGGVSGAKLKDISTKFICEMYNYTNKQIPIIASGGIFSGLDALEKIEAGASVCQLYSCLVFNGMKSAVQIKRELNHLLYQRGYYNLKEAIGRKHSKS
The experiment in a line: Inhibition of Plasmodium falciparum DHODH-mediated 2,6-dichloroindophenol reduction after 20 mins by spectrophotometry.

The subject of a further data set is Plasmodium vivax. The experiment in a line: Inhibition of Plasmodium vivax DHODH-mediated 2,6-dichloroindophenol reduction after 20 mins by spectrophotometry.
The next data set concerns Plasmodium berghei. The experiment in a line: Inhibition of Plasmodium berghei DHODH-mediated 2,6-dichloroindophenol reduction after 20 mins by spectrophotometry.

The structures appear in SMILES notation. Values after ≈ are worked out from the molar mass of the structure shown.

Sequence of Dihydroorotate dehydrogenase (quinone), mitochondrial (Homo sapiens) (Q02127 whole entry): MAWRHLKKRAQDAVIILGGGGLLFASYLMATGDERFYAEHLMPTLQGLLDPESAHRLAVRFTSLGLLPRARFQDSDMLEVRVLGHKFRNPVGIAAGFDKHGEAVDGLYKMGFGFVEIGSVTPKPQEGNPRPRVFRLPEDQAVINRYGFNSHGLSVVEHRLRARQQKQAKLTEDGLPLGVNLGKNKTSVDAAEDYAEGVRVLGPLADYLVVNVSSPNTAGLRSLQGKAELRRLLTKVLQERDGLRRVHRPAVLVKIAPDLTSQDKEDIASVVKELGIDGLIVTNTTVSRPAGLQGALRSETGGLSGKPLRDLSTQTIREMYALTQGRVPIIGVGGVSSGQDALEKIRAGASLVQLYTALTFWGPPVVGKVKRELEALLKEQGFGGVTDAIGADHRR

Consider `C[C@@H]1CN([C@@H](C)CO)C(=O)c2cc(NC(=O)Nc3ccccc3)ccc2O[C@@H](C)CCCCO[C@H]1CN(C)S(=O)(=O)c1ccccc1`, for which the GI50 (commonly the concentration at which growth is held to half of that of the control) in the data set with Plasmodium falciparum was 350 nM.

As for `COCCOC(=O)N(C)C[C@@H]1OCCCC[C@H](C)Oc2ccc(NC(=O)Nc3ccccc3)cc2C(=O)N([C@@H](C)CO)C[C@H]1C`, the GI50 with Plasmodium falciparum is > 5000 nM. In the data set with Plasmodium falciparum, `C[C@@H]1CN([C@@H](C)COC(=O)c2ccccc2)C(=O)c2cc(NC(=O)Nc3ccccc3)ccc2O[C@@H](C)CCCCO[C@H]1CN(C)S(=O)(=O)c1ccc(F)cc1` showed a GI50 of 15 nM. In the data set on Plasmodium falciparum, `C[C@@H]1CN(CCO)C(=O)c2cc(NC(=O)Nc3ccccc3)ccc2O[C@@H](C)CCCCO[C@H]1CN(C)S(=O)(=O)c1ccc(F)cc1` gave a GI50 of 640 nM. The compound `CNC[C@H](C)N1C[C@@H](C)[C@H](CN(C)S(=O)(=O)c2ccc(F)cc2)OCCCC[C@H](C)Oc2ccc(NC(=O)Nc3ccccc3)cc2C1=O` showed a GI50 in the data set with Plasmodium falciparum of 79 nM. In the data set with Plasmodium falciparum, `Cc1noc(C)c1NC(=O)Nc1ccc2c(c1)C(=O)N([C@@H](C)CO)C[C@@H](C)[C@H](CN(C)S(=O)(=O)c1ccc(F)cc1)OCCCC[C@H](C)O2` gave a GI50 of 240 nM. Same read-out and setting: to `C[C@@H]1CN([C@@H](C)CO)C(=O)c2cc(N(C)C)ccc2O[C@@H](C)CCCCO[C@H]1CN(C)S(=O)(=O)c1ccc(F)cc1` belongs > 5000 nM; to `CC(C)NC(=O)Nc1ccc2c(c1)C(=O)N([C@@H](C)CO)C[C@@H](C)[C@H](CN(C)S(=O)(=O)c1ccc(F)cc1)OCCCC[C@H](C)O2`, 400 nM; to `C[C@@H]1CN([C@@H](C)CO)C(=O)c2cc(NC(=O)Nc3ccccc3)ccc2O[C@@H](C)CCCCO[C@H]1CN(C)C(=O)c1ccccc1`, 2600 nM. Turning to `C[C@@H]1CN([C@@H](C)CO)C(=O)c2cc(NS(=O)(=O)c3ccccc3)ccc2O[C@@H](C)CCCCO[C@H]1CN(C)S(=O)(=O)c1ccc(F)cc1`, the GI50 in the data set on Plasmodium falciparum was 2400 nM.

Compound `COc1ccc(S(=O)(=O)N(C)C[C@@H]2OCCCC[C@H](C)Oc3ccc(NC(=O)Nc4ccccc4)cc3C(=O)N([C@@H](C)CO)C[C@H]2C)cc1` showed a GI50 with Plasmodium falciparum of 160 nM. As to `C[C@@H]1CN([C@@H](C)CO)C(=O)c2cc(NC(=O)Nc3ccccc3)ccc2O[C@@H](C)CCCCO[C@H]1CN(C)C(=O)OC(C)(C)C`, halving of growth with Plasmodium falciparum (GI50) required 1400 nM.

Compound `C[C@@H]1CN([C@@H](C)CO)C(=O)c2cc(NC(=O)Nc3ccccc3)ccc2O[C@@H](C)CCCCO[C@H]1CN(C)Cc1ccccc1` showed a concentration for 50% growth inhibition (GI50) with Plasmodium falciparum of 1100 nM. `C[C@@H]1CN([C@@H](C)CO)C(=O)c2cc(Nc3nc4ccccc4o3)ccc2O[C@@H](C)CCCCO[C@H]1CN(C)S(=O)(=O)c1ccc(F)cc1` displayed a GI50 with Plasmodium falciparum of 580 nM. As for `C[C@@H]1CN([C@@H](C)CO)C(=O)c2cc(NC(=O)Nc3ccccc3)ccc2O[C@@H](C)CCCCO[C@H]1CN(C)S(=O)(=O)c1cccnc1`, the GI50 in the data set with Plasmodium falciparum was > 5000 nM. As to `C[C@@H]1CN([C@@H](C)CO)C(=O)c2cc(NC(=O)Nc3ccccc3)ccc2O[C@@H](C)CCCCO[C@H]1CN(C)S(=O)(=O)c1ccccc1F`, in the data set on Plasmodium falciparum, it took 1100 nM to inhibit growth by half (GI50).

The compound `C[C@@H]1CN([C@@H](C)CN=[N+]=[N-])C(=O)c2cc(NC(=O)Nc3ccccc3)ccc2O[C@@H](C)CCCCO[C@H]1CN(C)S(=O)(=O)c1ccc(F)cc1` came in with a GI50 with Plasmodium falciparum of 3.2 nM. In the data set on Plasmodium falciparum, `C[C@@H]1CN([C@@H](C)CN)C(=O)c2cc(NC(=O)Nc3ccccc3)ccc2O[C@@H](C)CCCCO[C@H]1CN(C)S(=O)(=O)c1ccc(F)cc1` displayed a GI50 of 370 nM. In the data set with Plasmodium falciparum, `COc1ccc(COCCN2C[C@@H](C)[C@H](CN(C)S(=O)(=O)c3ccc(F)cc3)OCCCC[C@H](C)Oc3ccc(NC(=O)Nc4ccccc4)cc3C2=O)cc1` showed a GI50 of 55 nM.

Turning to `C[C@@H]1CN([C@@H](C)CO)C(=O)c2cc(NC(=O)Nc3ccccc3)ccc2O[C@@H](C)CCCCO[C@H]1CN(C)Cc1ccc(F)cc1`, it took 4300 nM to inhibit growth in the data set with Plasmodium falciparum by half (GI50).

On to `COCOC[C@H](C)N1C[C@@H](C)[C@H](CN(C)S(=O)(=O)c2ccc(F)cc2)OCCCC[C@H](C)Oc2ccc(NC(=O)Nc3ccccc3)cc2C1=O`, for which, in the data set on Plasmodium falciparum, the GI50 is 8.2 nM. Still for that read-out and setting: to `C[C@@H]1CN([C@@H](C)CO)C(=O)c2cc(N)ccc2O[C@@H](C)CCCCO[C@H]1CN(C)S(=O)(=O)c1ccc(F)cc1` belongs 990 nM.

Regarding `C[C@@H]1CN([C@@H](C)COC(=O)C(C)(C)C)C(=O)c2cc(NC(=O)Nc3ccccc3)ccc2O[C@@H](C)CCCCO[C@H]1CN(C)S(=O)(=O)c1ccc(F)cc1`, the solubility (as a rule, the concentration that dissolves in the medium under given conditions) in data set [1] was < 0.5 µM. The compound further came in with a GI50 with Plasmodium falciparum of 7.3 nM. In the data set with Plasmodium falciparum, `COc1ccc(COC[C@H](C)N2C[C@@H](C)[C@H](CN(C)S(=O)(=O)c3ccc(F)cc3)OCCCC[C@H](C)Oc3ccc(NC(=O)Nc4ccccc4)cc3C2=O)cc1` showed a GI50 of 0.18 nM. In data set [1], `C[C@@H]1CN([C@@H](C)CO)C(=O)c2cc(NC(=O)Nc3ccccc3)ccc2O[C@@H](C)CCCCO[C@H]1CN(C)C(=O)Oc1ccccc1` showed a solubility of 1.2 µM (≈ 0.776 µg/mL). Moreover, the GI50 in the data set on Plasmodium falciparum is > 5000 nM.

Take `C[C@@H]1CN([C@@H](C)CN(C)C)C(=O)c2cc(NC(=O)Nc3ccccc3)ccc2O[C@@H](C)CCCCO[C@H]1CN(C)S(=O)(=O)c1ccc(F)cc1`: the INH (in data set [2]; in data set [3]; in the data set with Plasmodium vivax; in the data set on Plasmodium berghei) was > 30 µM throughout. Regarding `COc1ccc(COC[C@@H](C)N2C[C@@H](C)[C@H](CN(C)S(=O)(=O)c3ccc(F)cc3)OCCCC[C@H](C)Oc3ccc(NC(=O)Nc4ccccc4)cc3C2=O)cc1`, in the data set with Plasmodium falciparum, growth was halved (GI50) at 36 nM.

Regarding `C[C@@H]1CN([C@@H](C)CO)C(=O)c2cc(NC(=O)Nc3ccccc3)ccc2O[C@@H](C)CCCCO[C@H]1CN(C)S(=O)(=O)c1ccc(C(F)(F)F)cc1`, it took 877 nM to inhibit growth in the data set with Plasmodium falciparum by half (GI50).
